Data published in patent US20230066011A1, “PYRROLOPYRIMIDINE DERIVATIVE, AND PHARMACEUTICAL COMPOSITION FOR PREVENTING OR TREATING PROTEIN KINASE-RELATED DISEASE COMPRISING SAME AS ACTIVE INGREDIENT” (VORONOI CO., LTD., priority 2019, published 2023).

Assays:
MDA-MB-468 cell line = experiment: Inhibition of proliferation of MDA-MB-468 cancer cells (Cell Titer-Glo); assay type: cell-based; conditions: Homo sapiens, MDA-MB-468, 72 hours
In short: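 Luminescence from Cell Titer-Glo (10 min, room temperature) gave GI50 after 72 h compound treatment. Final compound levels spanned 0.000169–10.000000 μM over 11 points, 3-fold steps; 2,000 cells/well grown in DMEM or RPMI.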

LRRK2 = LRRK2 (Homo sapiens, UniProt Q5S007); experiment: LRRK2 enzyme inhibition, ADP-Glo kinase assay; assay type: biochemical; set-up: purchased Invitrogen PR8604B; conditions: ATP 10 μM
Chain of LRRK2 (Q5S007 970-2527 limits assumed): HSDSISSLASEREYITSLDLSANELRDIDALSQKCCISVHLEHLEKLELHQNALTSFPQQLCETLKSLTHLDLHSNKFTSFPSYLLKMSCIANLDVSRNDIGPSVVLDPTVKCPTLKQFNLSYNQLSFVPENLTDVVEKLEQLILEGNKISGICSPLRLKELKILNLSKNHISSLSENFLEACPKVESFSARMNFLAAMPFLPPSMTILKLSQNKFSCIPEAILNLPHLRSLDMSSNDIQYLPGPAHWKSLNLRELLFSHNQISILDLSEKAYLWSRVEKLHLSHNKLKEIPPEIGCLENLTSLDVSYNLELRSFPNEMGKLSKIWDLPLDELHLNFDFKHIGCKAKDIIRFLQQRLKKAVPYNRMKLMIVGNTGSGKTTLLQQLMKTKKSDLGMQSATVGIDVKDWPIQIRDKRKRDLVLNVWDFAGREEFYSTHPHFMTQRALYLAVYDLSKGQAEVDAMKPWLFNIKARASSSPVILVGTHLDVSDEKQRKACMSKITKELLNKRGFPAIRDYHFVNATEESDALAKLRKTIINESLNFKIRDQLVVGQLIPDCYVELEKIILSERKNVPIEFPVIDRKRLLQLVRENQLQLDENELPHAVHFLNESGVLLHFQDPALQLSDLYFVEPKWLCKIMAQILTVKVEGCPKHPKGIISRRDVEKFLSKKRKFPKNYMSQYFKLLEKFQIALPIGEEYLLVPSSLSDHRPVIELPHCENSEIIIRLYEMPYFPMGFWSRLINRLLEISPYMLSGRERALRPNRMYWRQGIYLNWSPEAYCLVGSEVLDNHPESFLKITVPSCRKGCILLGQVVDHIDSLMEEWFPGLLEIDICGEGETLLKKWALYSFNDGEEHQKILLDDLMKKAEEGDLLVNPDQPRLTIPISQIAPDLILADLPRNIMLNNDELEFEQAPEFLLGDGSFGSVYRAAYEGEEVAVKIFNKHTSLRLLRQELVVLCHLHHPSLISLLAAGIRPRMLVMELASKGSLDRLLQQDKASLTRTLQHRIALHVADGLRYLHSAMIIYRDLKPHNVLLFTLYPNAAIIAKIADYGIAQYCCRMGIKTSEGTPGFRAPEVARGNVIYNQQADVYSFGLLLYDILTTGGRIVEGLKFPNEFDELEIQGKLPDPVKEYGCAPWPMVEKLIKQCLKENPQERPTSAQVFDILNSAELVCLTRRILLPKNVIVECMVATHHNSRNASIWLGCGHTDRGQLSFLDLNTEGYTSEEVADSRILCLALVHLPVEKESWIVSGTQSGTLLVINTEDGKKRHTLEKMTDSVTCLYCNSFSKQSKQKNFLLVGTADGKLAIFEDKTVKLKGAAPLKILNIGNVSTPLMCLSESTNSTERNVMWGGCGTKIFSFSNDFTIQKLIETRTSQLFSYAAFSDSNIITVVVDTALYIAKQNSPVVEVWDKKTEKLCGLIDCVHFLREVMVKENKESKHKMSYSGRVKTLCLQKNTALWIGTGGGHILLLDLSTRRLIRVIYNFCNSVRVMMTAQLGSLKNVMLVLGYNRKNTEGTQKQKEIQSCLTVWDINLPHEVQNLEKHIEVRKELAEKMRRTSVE
In short: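 ADP-Glo luminescent read-out of ADP formed by purified human LRRK2 enzyme (25 ng), 10 μM ATP, 0.2 μg substrate, 25° C for 2 h, Tris-HCl pH 7.4 buffer with MgCl2, BSA, DTT. Inhibition versus untreated solvent control over twelve final concentrations (50 μM downward) gives IC50.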

human GST-DYRK1A = target: T1, human GST-DYRK1A (Homo sapiens, UniProt Q13627); experiment: GST-DYRK1A enzyme inhibition, ADP-Glo kinase assay; assay type: biochemical; conditions: ATP 10 μM, GST-DYRK1A full length, read-out: DYRK1 IC50
T1 construct: purified human GST-DYRK1A (full length, Thermo Scientifics) enzyme; purchased Thermo Scientifics
In short: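 Full-length enzyme (10 ng) was incubated with 10 μM ATP and a specific substrate for 1 h at 25 °C in 40 mM Tris-HCl pH 7.4, 20 mM MgCl2, 0.5 mg/mL BSA, 50 μM DTT. Luminescence was read against a solvent control, and IC50 values were derived from 3 data sets.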

LRRK2 (G2019S) = LRRK2 (G2019S) (Homo sapiens, UniProt Q5S007, G2019S); experiment: LRRK2 G2019S enzyme inhibition, ADP-Glo kinase assay; assay type: biochemical; set-up: purchased SignalChem L10-12GG; conditions: ATP 25 μM
Chain of LRRK2 (G2019S) (Q5S007 970-2527 G2019S limits assumed): as the sequence (Q5S007 970-2527 limits assumed) above, with G1050S counted along it
In short: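 IC50 derived from luminescent ADP-Glo readout against untreated solvent control, twelve final compound concentrations from 50 μM downward. Reaction: recombinant human LRRK2 G2019S enzyme, 25 μM ATP, substrate, pH 7.4 Tris buffer with MgCl2/BSA/DTT, 25° C. for 2 hours.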

Structure (SMILES) | GI50 (MDA-MB-468 cell line) [nM] | IC50 (LRRK2) [µM] | IC50 (human GST-DYRK1A) [µM] | IC50 (LRRK2 (G2019S)) [µM]
COc1cc(S(=O)(=O)N2CCOCC2)ccc1Nc1nc(C2CC2)c2c(C#N)c[nH]c2n1 [Example 223, 4-cyclopropyl-2-((2-methoxy-4-(morpholinosulfonyl)phenyl)amino)-7H-pyrrolo[2,3-d]pyrimidine-5-carbonitrile] | 301 to 1000 | 0.101 to 0.3 | – | –
CCNc1nc(Nc2ccc(C(=O)N3CCN(C4COC4)CC3)c3c2OCCO3)nc2[nH]cc(C(F)(F)F)c12 [Example 400, (8-((4-(ethylamino)-5-(trifluoromethyl)-7H-pyrrolo[2,3-d]pyrimidin-2-yl)amino)-2,3-dihydrobenzo[b] [1,4]dioxin-5-yl) (4-(oxetan-3-yl)piperazin-1-yl)methanone] | 301 to 1000 | – | < 0.1 | < 0.1
CNc1nc(Nc2ccc(S(=O)(=O)N3CCC(N4CCOCC4)CC3)cc2OC)nc2[nH]cc(C(F)(F)F)c12 [Example 157, N^2-(2-methoxy-4-((4-morpholinopiperidin-1-yl)sulfonyl)phenyl)-N^4-methyl-5-(trifluoromethyl)-7H-pyrrolo[2,3-d]pyrimidine-2,4-diamine 2,2,2-trifluoroacetate] | – | – | < 0.1 | < 0.1
CCNc1nc(Nc2ccc(C(=O)N3CC[C@H](N4CCOCC4)C3)c3c2OCC3)nc2[nH]cc(C(F)(F)F)c12 [Example 475, (S)-(7-((4-(ethylamino)-5-(trifluoromethyl)-7H-pyrrolo[2,3-d]pyrimidin-2-yl)amino)-2,3-dihydrobenzo-furan-4-yl)(3-morpholino-pyrrolidin-1-yl)methanone] | – | < 0.1 | < 0.1 | < 0.1
COCCNc1nc(Nc2ccc(P3(=O)CCN(C4CCOCC4)CC3)cc2OC)nc2[nH]cc(C(F)(F)F)c12 [Example 444, 4-(3-methoxy-4-((4-((2-methoxyethyl)amino)-5-(trifluoromethyl)-7H-pyrrolo[2,3-d]pyrimidin-2-yl)amino)phenyl)-1-(tetrahydro-2H-pyran-4-yl)-1,4-azaphosphinane 4-oxide] | 301 to 1000 | < 0.1 | < 0.1 | –
CCN1CCP(=O)(c2ccc(Nc3nc(C4CC4)c4c(C#N)c[nH]c4n3)c(OC)c2)CC1 [Example 261] | 301 to 1000 | < 0.1 | – | –
CCNc1nc(Nc2ccc(S(=O)(=O)N3CCC(N4CCOCC4)CC3)cc2OC)nc2[nH]cc(C(F)(F)F)c12 [Example 158, N^4-ethyl-N^2-(2-methoxy-4-((4-morpholinopiperidin-1-yl)sulfonyl)phenyl)-5-(trifluoromethyl)-7H-pyrrolo[2,3-d]pyrimidine-2,4-diamine 2,2,2-trifluoroacetate] | – | < 0.1 | – | < 0.1
CNc1nc(Nc2cc(F)c(S(=O)(=O)N3CCC(N4CCOCC4)CC3)cc2OC)nc2[nH]cc(C(F)(F)F)c12 [Example 231, N^2-(5-fluoro-2-methoxy-4-((4-morpholinopiperidin-1-yl)sulfonyl)phenyl)-N^4-methyl-5-(trifluoromethyl)-7H-pyrrolo[2,3-d]pyrimidine-2,4-diamine] | 301 to 1000 | – | 0.101 to 0.3 | < 0.1
O=C(c1ccc(Nc2nc(NC3CCCCC3)c3c(C(F)(F)F)c[nH]c3n2)c2c1OCCO2)N1CCN(C2COC2)CC1 [Example 415, (8-((4-(cyclo-hexylamino)-5-(trifluoromethyl)-7H-pyrrolo[2,3-d]pyrimidin-2-yl)amino)-2,3-dihydrobenzo[b] [1,4]dioxin-5-yl) (4-(oxetan-3-yl)piperazin-1-yl)methanone] | 101 to 300 | – | 0.301 to 1 | 0.301 to 1
COCCNc1nc(Nc2ccc(C(=O)N3CCC(N4CCOCC4)CC3)c3c2OCC3)nc2[nH]cc(C#N)c12 [Example 359, 4-((2-methoxy-ethyl)ami-no)-2-((4-(4-morpholino-piperidine-1-carbonyl)-2,3-dihydro-benzofuran-7-yl)amino)-7H-pyrrolo[2,3-d]pyrimidine-5-carbonitrile] | 301 to 1000 | – | < 0.1 | –
COc1cc(P2(=O)CCN(C3CCOCC3)CC2)ccc1Nc1nc(NC2CC2)c2c(C(F)(F)F)c[nH]c2n1 [Example 435, 4-(4-((4-(cyclo-propylamino)-5-(trifluoromethyl)-7H-pyrrolo[2,3-d]pyrimidin-2-yl)amino)-3-methoxyphenyl)-1-(tetrahydro-2H-pyran-4-yl)-1,4-azaphosphinane 4-oxide] | – | < 0.1 | < 0.1 | –
CCNc1nc(Nc2ccc(C(=O)N3CCC(N4CCOCC4)CC3)c3c2OCC3)nc2[nH]cc(C#N)c12 [Example 347, 4-(ethylamino)-2-((4-(4-morpholino-piperidine-1-carbonyl)-2,3-dihydro-benzofuran-7-yl)amino)-7H-pyrrolo[2,3-d]pyrimidine-5-carbonitrile] | – | < 0.1 | < 0.1 | < 0.1
CNc1nc(Nc2ccc(P3(=O)CCN(C4CC4)CC3)cc2OC)nc2[nH]cc(C(F)(F)F)c12 [Example 411, 1-cyclopropyl-4-(3-methoxy-4-((4-(methylamino)-5-(trifluoromethyl)-7H-pyrrolo[2,3-d]pyrimidin-2-yl)amino)phenyl)-1,4-azaphosphinane-4-oxide] | – | < 0.1 | 0.101 to 0.3 | –
COc1cc(S(=O)(=O)N2CCC(N3CCOCC3)CC2)ccc1Nc1nc(C2CC2)c2c(C#N)c[nH]c2n1 [Example 224, 4-cyclopropyl-2-((2-methoxy-4-((4-morpholinopiperidin-1-yl)sulfonyl)phenyl)amino)-7H-pyrrolo[2,3-d]pyrimidine-5-carbonitrile] | < 50 | < 0.1 | – | –
CCNc1nc(Nc2cc(F)c(S(=O)(=O)N3CCC(N4CCOCC4)CC3)cc2OC)nc2[nH]cc(C(F)(F)F)c12 [Example 232, N^4-ethyl-N^2-(5-fluoro-2-methoxy-4-((4-morpholinopiperidin-1-yl)sulfonyl)phenyl)-5-(trifluoromethyl)-7H-pyrrolo[2,3-d]pyrimidine-2,4-diamine] | 301 to 1000 | – | 0.301 to 1 | < 0.1
CNc1nc(Nc2ccc(C(=O)N3CCC(N4CCOCC4)CC3)c3c2OCCO3)nc2[nH]cc(C(F)(F)F)c12 [Example 238, (8-((4-(methylamino)-5-(trifluoromethyl)-7H-pyrrolo[2,3-d]pyrimidin-2-yl)amino)-2,3-dihydrobenzo[b][1,4]dioxin-5-yl)(4-morpholinopiperidin-1-yl)methanone] | – | < 0.1 | < 0.1 | < 0.1
CCCNc1nc(Nc2ccc(C(=O)N3CCC(N4CCOCC4)CC3)c3c2OCCO3)nc2[nH]cc(C#N)c12 [Example 138, 2-((8-(4-morpholinopiperidine-1-carbonyl)-2,3-dihydrobenzo[b][1,4]dioxin-5-yl)amino)-4-(propylamino)-7H-pyrrolo[2,3-d]pyrimidine-5-carbonitrile] | – | < 0.1 | 0.101 to 0.3 | < 0.1
CCCNc1nc(Nc2ccc(S(=O)(=O)N3CCC(N4CCOCC4)CC3)cc2OC)nc2[nH]cc(C(F)(F)F)c12 [Example 161, N^2-(2-methoxy-4-((4-morpholinopiperidin-1-yl)sulfonyl)phenyl)-N^4-propyl-5-(trifluoromethyl)-7H-pyrrolo[2,3-d]pyrimidine-2,4-diamine] | – | < 0.1 | – | 0.101 to 0.3
COc1cc(S(=O)(=O)N2CCC(N3C[C@H]4C[C@@H]3CO4)CC2)ccc1Nc1nc(C2CC2)c2c(C(F)(F)F)c[nH]c2n1 [Example 473, N-(4-((4-((1R,4R)-2-oxa-5-azabicyclo[2.2.1]heptan-5-yl)piperidin-1-yl)sulfonyl)-2-methoxyphenyl)-4-cyclopropyl-5-(trifluoromethyl)-7H-pyrrolo[2,3-d]pyrimidin-2-amine] | 301 to 1000 | – | – | –
COc1cc(P2(=O)CCN(C3CC3)CC2)ccc1Nc1nc(NC2CCCC2)c2c(C(F)(F)F)c[nH]c2n1 [Example 413] | – | – | 0.301 to 1 | 0.301 to 1
O=C(c1ccc(Nc2nc(NCC3CC3)c3c(C(F)(F)F)c[nH]c3n2)c2c1CCO2)N1CCC(N2CCOCC2)CC1 [Example 461, (7-((4-((cyclo-propylmeth-yl)amino)-5-(trifluoromethyl)-7H-pyrrolo[2,3-d]pyrimidin-2-yl)amino)-2,3-dihydrobenzo-furan-4-yl)(4-morpho-linopiperidin-1-yl)methanone] | – | < 0.1 | < 0.1 | < 0.1
CNc1nc(Nc2ccc(C(=O)N3CC[C@H](N4CCOCC4)C3)c3c2OCC3)nc2[nH]cc(C(F)(F)F)c12 [Example 236, (S)-(7-((4-(methylamino)-5-(trifluoromethyl)-7H-pyrrolo[2,3-d]pyrimidin-2-yl)amino)-2,3-dihydrobenzofuran-4-yl)(3-morpholinopyrrolidin-1-yl)methanone] | – | < 0.1 | < 0.1 | < 0.1
